For orientation: IC50 means the concentration at which inhibition is half-maximal.

These results are taken from patent US10947223B2, “Substituted oxazines as beta-secretase inhibitors” (AMGEN INC., priority 2016, dated 2021).

The subject of data set [1] is pigment epithelium of the rat's eye. To be noted: higher compound dose given for three months; cited from earlier work.
The test system of data set [2] is Aβ peptide. The note with it: sustained and dose-dependent manner; cited from earlier work.
The conditions of data set [3]: phase I clinical trials; cited from earlier work.
For data set [4] the following is noted: repeated doses up to 200 mg, phase I clinical trial; cited from earlier work.
Data set [5] relates to Aβ peptide. To be noted: nonhuman primates; cited from earlier work.
Data set [6] deals with T1, BACE1 (Homo sapiens (Human), UniProt P56817). Description: In vitro BACE1 cell-based assay (Aβ40 in conditioned medium, HTRF). To be noted: Aβ40 in conditioned medium of cells expressing APP, 24 h. Here is the method:
In Vitro BACE1 Cell-Based Assay
The cell-based assay measures inhibition or reduction of Aβ40 in conditioned medium of test compound treated cells expressing amyloid precursor protein. Cells stably expressing Amyloid Precursor Protein (APP) were plated at a density of 45K cells/well in 384 well plates (Corning/BioCoat 354663). The test compounds were then added to cells in 22-point dose response concentrations with the starting concentration being 62.5 μM. The compounds were diluted from stock solutions in DMSO and the final DMSO concentration of the test compounds on cells was 0.625%. The cells were cultivated overnight at 37° C. and 5% CO2 in DMEM supplemented with 10% FBS. After 24 h of incubation with the test compounds, the conditioned media was collected and the Aβ40 levels were determined using HTRF (Homogeneous Time Resolved Fluorescence). The IC50 of the compound was calculated from the percent of control or percent inhibition of Aβ 40 as a function of the concentration of the test compound.
The HTRF to detect Aβ40 was performed in 384 well plates (Costar 3658). The antibody pair that were used to detect Aβ 40 from cell supernatants were ConfAb40 antibody (Amgen in-house) and biotinylated 6E10 (BIOLEGEND). As an alternative to ConfAb40, a commercially available antibody, Anti-beta Amyloid 1-40 antibody [BDI350] from Abcam, Cambridge, Mass. 02139-1517 (Product code: ab20068), may be used in this assay. The concentrations were 0.35 μg/mL of ConfAb40 antibody and 1.33 μg/mL of 6E10-biotinylated antibody, as well as 4.5 μg/mL of Streptavidin Allophycocyanin Conjugate (ThermoFisher Scientific) in HTRF Buffer ([…], 1% BSA, 0.5% Tween 20).
The conditioned media was incubated with above antibodies and Streptavidin Allophycocyanin Conjugate for 30-60 minutes at 23° C. The final readout was performed on Envision from PerkinElmer.
Target sequence in this assay (P56817 46-501, species assumed): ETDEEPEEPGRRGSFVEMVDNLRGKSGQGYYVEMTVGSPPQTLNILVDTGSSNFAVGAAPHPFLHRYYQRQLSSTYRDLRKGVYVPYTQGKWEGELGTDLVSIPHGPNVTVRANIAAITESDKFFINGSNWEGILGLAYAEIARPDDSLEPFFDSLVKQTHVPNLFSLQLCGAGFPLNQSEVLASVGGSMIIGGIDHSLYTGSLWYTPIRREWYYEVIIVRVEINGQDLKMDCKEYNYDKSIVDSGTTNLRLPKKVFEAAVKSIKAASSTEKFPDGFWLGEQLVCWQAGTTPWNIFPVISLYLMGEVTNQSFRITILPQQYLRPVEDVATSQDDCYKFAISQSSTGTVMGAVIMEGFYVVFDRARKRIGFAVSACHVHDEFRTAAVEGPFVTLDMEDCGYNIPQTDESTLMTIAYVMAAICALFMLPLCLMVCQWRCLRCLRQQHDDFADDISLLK
Background: Time-resolved FRET reads energy transfer from a long-lived donor to a nearby acceptor.

For another data set, the target named is Recombinant CatD (Homo sapiens (Human), UniProt P07339). Briefly: In vitro enzymatic Cathepsin D (CatD) FRET assay. It is filed as biochemical. The note with it: pH 3.5, read-out: CatD Enzyme IC50. The procedure: In Vitro Enzymatic Cathepsin D (CatD) FRET Assay
Chain of Recombinant CatD (P07339 65-412): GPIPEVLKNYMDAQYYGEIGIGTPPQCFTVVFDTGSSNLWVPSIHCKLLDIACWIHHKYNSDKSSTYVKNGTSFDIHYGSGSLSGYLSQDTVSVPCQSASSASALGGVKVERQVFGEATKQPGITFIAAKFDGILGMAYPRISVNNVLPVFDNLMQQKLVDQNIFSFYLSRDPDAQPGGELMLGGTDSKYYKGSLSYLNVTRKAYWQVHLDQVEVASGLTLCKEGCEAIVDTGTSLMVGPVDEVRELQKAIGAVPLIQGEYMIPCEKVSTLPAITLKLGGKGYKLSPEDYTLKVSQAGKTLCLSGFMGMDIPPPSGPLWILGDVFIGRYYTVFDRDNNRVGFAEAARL
Recombinant CatD was expressed in CHO cells. The assay buffer for CatD was 0.05 M citrate pH 3.5, 10% DMSO final, 5 mM CHAPS. The CatD enzyme (9 nM) was pre-incubated for one hour with inhibitors, typically in about 1 uL of DMSO according to a serial dilution, is added thereto. The assays was effectively started by the addition of different FRET substrates (20 nM for CatD) and the combination was incubated for one hour. The FRET assay was terminated with by addition of tris buffer, which raises the pH to neutrality, and the fluorescence was determined. The FRET substrate was a peptide with commercially available fluorophore and quencher, on opposite sides of the CatD cleavage site. The CatD substrate peptide sequence was based on sequence #1 of Table 1 from Gulnik et al., FEBS Lett. 413(2):379-384 (1997). Proteolytic cleavage of the FRET substrate released quenching of fluorescence (CatD excitation 500 nm and emission 580 nm).
The in vitro CatD FRET assay data for each of the Examples is provided in Table 2, conducted by the first procedure described above. […] Thus, with this surprising selectivity profile, the compounds provided herein are believed to minimize, reduce or completely eliminate any risk of retinal atrophy and abnormal development of the eye and of the retinal pigmented epithelium as it relates to the normal function and activity of CatD.

For data set [7], the target named is T1, BACE1. Description: In vitro enzymatic BACE1 FRET assay. The note with it: pH 4.5, read-out: BACE1 Enzyme IC50. It is filed as biochemical. Here is the method: (§1) In Vitro Enzymatic BACE1 and BACE2 FRET (Fluorescence Resonance Energy Transfer) Assays
(§2) The cDNAs for both human recombinant BACE1 and 2 with C-terminal 6-His Tags were cloned into transient protein expression vectors, which were subsequently transfected into mammalian cell lines. These recombinant proteins were further purified using Ni-NTA affinity chromatography (Qiagen). The assay buffer used in these screens was 0.05 M acetate, pH 4.5, 8% DMSO final, 100 μM genapol (which is a nonionic detergent, below its Critical Micelle Concentration). The β-secretase enzyme (0.02 nM for BACE1 and 0.64 nM for BACE2), which was pre-incubated for one hour with the test compound, typically in about 1 uL of DMSO according to a serial dilution, was added thereto. The assay was effectively started by the addition of FRET substrate (50 nM) and the combination was incubated for one hour. The FRET assay was terminated by the addition of tris buffer, which raised the pH to neutrality, and the fluorescence was determined. The FRET substrate was a peptide with commercially available fluorophore and quencher, on opposite sides of the BACE cleavage site. The specific FRET substrate used in this assay was made by Amgen in-house. Commercially available FRET substrates, for example, the FRET substrate offered with the BACE1 FRET Assay Kit sold by ThermoFisher Scientific (Catalog Number P2985), may be used in this assay with the appropriate modifications, which are within the purview of the ability of a person with ordinary skill in the art. Proteolytic cleavage of the FRET substrate released quenching of fluorescence (excitation 488 nm and emission 590 nm).
Target sequence in this assay (P56817 46-501): as the sequence (P56817 46-501, species assumed) above

A further data set concerns the target human recombinant BACE2 (Homo sapiens (Human), UniProt Q9Y5Z0). Briefly: In vitro enzymatic BACE2 FRET assay. It is filed as biochemical. The note with it: pH 4.5, read-out: BACE2 Enzyme IC50. Here is the method:
as §1, §2

The subject of data set [8] is Aβ peptide. The note with it: oral dose of 95 mg once daily; cited from earlier work.
For data set [9] the following is noted: in vivo; cited from earlier work.

Chain of human recombinant BACE2 (Q9Y5Z0 63-518): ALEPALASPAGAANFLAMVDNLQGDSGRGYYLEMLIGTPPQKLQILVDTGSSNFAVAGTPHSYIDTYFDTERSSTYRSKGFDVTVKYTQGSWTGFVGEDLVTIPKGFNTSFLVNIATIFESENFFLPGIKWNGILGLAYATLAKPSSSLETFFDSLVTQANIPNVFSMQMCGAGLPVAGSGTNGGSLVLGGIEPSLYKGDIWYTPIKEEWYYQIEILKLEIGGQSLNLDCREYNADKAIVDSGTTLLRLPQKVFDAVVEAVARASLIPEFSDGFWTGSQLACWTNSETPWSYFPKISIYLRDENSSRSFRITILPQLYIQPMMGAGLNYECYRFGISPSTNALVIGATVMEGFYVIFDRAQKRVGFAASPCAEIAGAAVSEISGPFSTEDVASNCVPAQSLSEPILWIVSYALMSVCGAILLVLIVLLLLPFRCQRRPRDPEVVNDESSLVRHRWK

In the case of `C[C@@]1(c2cc(-c3cncnc3)c(F)cc2F)CCSC(N)=N1` [LY 2811376], the eye toxicity finding entry in [1] is “damaged the pigment epithelium of the rat's eye”.
For the molecule `CN1C(=N)N[C@](C)(c2cc(NC(=O)c3ccc(F)cn3)ccc2F)CS1(=O)=O` [MK-8931], the “CSF Aβ peptide concentrations” value with Aβ peptide [2] is on record as “significantly reduced CSF Aβ peptide concentrations”. In [3], the safety profile result is reported as “excellent safety profile with no immediately noticeable side effects”.
On to `C[C@H]1OC[C@]2(c3cc(NC(=O)c4cnc(C(F)F)cn4)ccc3F)N=C(N)SC[C@H]12` [Example E2609], for which the clinical safety result in data set [4] is listed as “did not show clinical significant safety concerns”. Moreover, the “reduction in Aβ peptide levels in the CSF and plasma” value in the data set with Aβ peptide [5] was “significant reduction”.
On to `C[C@@]1(c2cc(/C=C(\F)c3ccc(Cl)cn3)ccc2F)CO[C@@](C)(C(F)(F)F)C(N)=N1` [Example 103, (2R,5R)-5-(5-((Z)-2-(5-chloropyridin-2-yl)-2-fluorovinyl)-2-fluorophenyl)-2,5-dimethyl-2-(trifluoromethyl)-5,6-dihydro-2H-1,4-oxazin-3-amine], for which the IC50 at BACE1 [6] stood at 0.693 µM; on Recombinant CatD, 19.2 µM; on BACE1 [7] it was 0.065 µM; on human recombinant BACE2, 0.017 µM.
In the case of `C[C@]1(c2cc(/C=C(\F)c3ccc(C#N)cn3)ccc2F)N=C(N)OC[C@@H]1OCC(F)(F)F` [Example 109, 6-((Z)-2-(3-((4R,5R)-2-amino-4-methyl-5-(2,2,2-trifluoroethoxy)-5,6-dihydro-4H-1,3-oxazin-4-yl)-4-fluorophenyl)-1-fluorovinyl)nicotinonitrile], the IC50 worked out at 0.014 µM against BACE1 [6], 1190 µM on Recombinant CatD, 0.125 µM at BACE1 [7] and 3.87 µM on human recombinant BACE2.
Consider `C[C@@]1(c2cc(/C=C(\F)c3cnc(OCC(F)(F)C(F)F)cn3)ccc2F)CO[C@@](C)(C(F)(F)F)C(N)=N1` [Example 106, (2R,5R)-5-(2-fluoro-5-((Z)-2-fluoro-2-(5-(2,2,3,3-tetrafluoropropoxy)pyrazin-2-yl)vinyl)phenyl)-2,5-dimethyl-2-(trifluoromethyl)-5,6-dihydro-2H-1,4-oxazin-3-amine], for which the IC50 on BACE1 [6] amounted to 4.13 µM; on Recombinant CatD, 88.4 µM; on BACE1 [7], 0.666 µM; at human recombinant BACE2, 1.59 µM.
As for `C[C@@]1(c2cc(/C=C(\F)c3ccc(C#N)cn3)ccc2F)CO[C@@](C)(C(F)(F)F)C(N)=N1` [Example 104, 6-((Z)-2-(3-((3R,6R)-5-amino-3,6-dimethyl-6-(trifluoromethyl)-3,6-dihydro-2H-1,4-oxazin-3-yl)-4-fluorophenyl)-1-fluorovinyl)nicotinonitrile], the 50% inhibitory concentration (IC50) against BACE1 [6] was found to be 0.152 µM; at Recombinant CatD it was 204 µM; on BACE1 [7] it was 0.026 µM; on human recombinant BACE2 it was 0.095 µM.
Consider `C[C@@]1(c2cc(NC(=O)c3ccc(C#N)cn3)ccc2F)C=CSC(N)=N1` [JNJ-54861911], for which the “Aβ peptide reduction in CSF” value in the data set with Aβ peptide [8] is listed as “up to 95%”. Moreover, the “ability to cross the blood-brain barrier” value in data set [9] is reported as “demonstrated an ability to cross the blood-brain barrier”.
For `C#CCOc1cnc(/C(F)=C/c2ccc(F)c([C@@]3(C)N=C(N)OCC3(F)F)c2)cn1` [Example 115, (R,Z)-5,5-difluoro-4-(2-fluoro-5-(2-fluoro-2-(5-(prop-2-yn-1-yloxy)pyrazin-2-yl)vinyl)phenyl)-4-methyl-5,6-dihydro-4H-1,3-oxazin-2-amine], the IC50 against BACE1 [6] was determined as 4.67 µM; at Recombinant CatD it was 119 µM; on BACE1 [7], 0.283 µM; on human recombinant BACE2, 5.84 µM.
